# Laboratory results from ChEMBL document CHEMBL3877248, “Further investigation of inhibitors of MRSA pyruvate kinase: Towards the conception of novel antimicrobial agents” (Eur J Med Chem, 2017).
# Tests used:
# [1] = molecular target: T1, Pyruvate kinase (Staphylococcus aureus (strain MRSA252)) (UniProt Q6GG09); test: Inhibition of recombinant N-terminal His-tagged methicillin-resistant Staphylococcus aureus MRSA252 pyruvate kinase expressed in Escherichia coli BL21(DE3) at 10 uM using PEP as substrate measured after 5 mins by LDH-coupled assay relative to control; details: Staphylococcus aureus subsp. aureus MRSA252
# T1 sequence (whole entry): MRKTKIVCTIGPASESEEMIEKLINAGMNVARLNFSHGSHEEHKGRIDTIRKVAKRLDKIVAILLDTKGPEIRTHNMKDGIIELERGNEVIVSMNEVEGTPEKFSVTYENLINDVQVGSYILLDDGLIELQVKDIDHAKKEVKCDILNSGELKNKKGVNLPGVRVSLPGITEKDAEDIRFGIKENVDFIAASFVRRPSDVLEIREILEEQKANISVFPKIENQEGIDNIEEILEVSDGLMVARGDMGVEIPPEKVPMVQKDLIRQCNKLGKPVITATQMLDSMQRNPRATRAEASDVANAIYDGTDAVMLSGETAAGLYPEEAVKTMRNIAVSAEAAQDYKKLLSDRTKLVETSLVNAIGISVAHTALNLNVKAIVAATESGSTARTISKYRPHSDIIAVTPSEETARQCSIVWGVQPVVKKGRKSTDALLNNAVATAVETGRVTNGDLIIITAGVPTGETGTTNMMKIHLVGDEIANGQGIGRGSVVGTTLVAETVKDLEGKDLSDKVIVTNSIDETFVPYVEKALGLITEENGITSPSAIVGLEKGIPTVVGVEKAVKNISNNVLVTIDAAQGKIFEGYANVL
# Pyruvate kinase = molecular target: T2, Pyruvate kinase (Staphylococcus aureus (strain MRSA252), UniProt Q6GG09); test: Inhibition of recombinant N-terminal His-tagged methicillin-resistant Staphylococcus aureus MRSA252 pyruvate kinase expressed in Escherichia coli BL21(DE3) using PEP as substrate measured after 5 mins by LDH-coupled assay; set-up: species or system Staphylococcus aureus subsp. aureus MRSA252
# T2 sequence (Q6GG09 whole entry): T1 sequence (whole entry)
# Staphylococcus aureus [2] = test: Antibacterial activity against Staphylococcus aureus ATCC 29213 measured after 24 hrs by two-fold microbroth dilution method; format: functional
# [3] = molecular target: T1, Pyruvate kinase (Staphylococcus aureus (strain MRSA252)); test: Inhibition of recombinant N-terminal His-tagged methicillin-resistant Staphylococcus aureus MRSA252 pyruvate kinase expressed in Escherichia coli BL21(DE3) at 1 uM using PEP as substrate measured after 5 mins by LDH-coupled assay relative to control; details: Staphylococcus aureus subsp. aureus MRSA252
# Staphylococcus aureus [4] = test: Antibacterial activity against methicillin-resistant Staphylococcus aureus MRSA252 by two-fold microbroth dilution method; format: functional
# [5] = Selectivity ratio for inhibition of recombinant N-terminal His-tagged methicillin-resistant Staphylococcus aureus MRSA252 pyruvate kinase over inhibition of human recombinant N-terminal His-tagged pyruvate kinase M1
# [6] = Selectivity ratio for inhibition of recombinant N-terminal His-tagged methicillin-resistant Staphylococcus aureus MRSA252 pyruvate kinase over inhibition of human recombinant N-terminal His-tagged pyruvate kinase M2
# [7] = Selectivity ratio for inhibition of recombinant N-terminal His-tagged methicillin-resistant Staphylococcus aureus MRSA252 pyruvate kinase over inhibition of human recombinant N-terminal His-tagged pyruvate kinase-R
# [8] = Selectivity ratio for inhibition of recombinant N-terminal His-tagged methicillin-resistant Staphylococcus aureus MRSA252 pyruvate kinase over inhibition of human recombinant N-terminal His-tagged pyruvate kinase-L
# [9] = molecular target: T1, Pyruvate kinase (Staphylococcus aureus (strain MRSA252)); test: Inhibition of recombinant N-terminal His-tagged methicillin-resistant Staphylococcus aureus MRSA252 pyruvate kinase expressed in Escherichia coli BL21(DE3) at 0.1 uM using PEP as substrate measured after 5 mins by LDH-coupled assay relative to control; details: Staphylococcus aureus subsp. aureus MRSA252
Compound,IC50 (Pyruvate kinase) [nM],MIC>98 (Staphylococcus aureus [2]) [µg/mL],inhibition [3] [%],other results
O=C(/C=C/c1cc2ccccc2[nH]1)c1cccc(Br)c1O,,,,inhibition [1]: 2%
O=C(/C=C/c1cc2ccc(Br)cc2[nH]1)c1ccccc1O,343,>64,,
O=C(Nc1nc2cc(Br)ccc2[nH]1)c1cc2cc(Br)ccc2[nH]1,3,>64,,
Brc1ccc(-c2c[nH]c3cc(Br)ccc23)cc1,,2,,
O=C(Nc1nc2ccc(Br)cc2s1)c1ccccc1O,,>64,65,
COc1ccc(Br)cc1/C=C/C(=O)c1cc2ccc(Br)cc2[nH]1,8,>64,,
O=C(Nc1nc2cc(Br)ccc2[nH]1)c1cc2ccc(Br)cc2[nH]1,2,>64,,
"O=C1NC[C@@H](c2c[nH]c3cc(Br)ccc23)N[C@H]1c1c[nH]c2cc(Br)ccc12 [CIS-3,4-DIHYDROHAMACANTHIN B]",,,,MIC (Staphylococcus aureus [4]): 12.5 µg/mL; Selectivity ratio [5]: 166 to 600; Selectivity ratio [6]: 166 to 600; Selectivity ratio [7]: 166 to 600; Selectivity ratio [8]: 166 to 600
O=C(Nc1nc2ccc(Br)cc2s1)c1ccc(Br)cc1O,,>64,,
O=C(/C=C/c1cc2ccc(Br)cc2[nH]1)c1cc2ccc(Br)cc2[nH]1,,,6,
O=C(Nc1cc(Br)ccc1O)c1cc2ccccc2[nH]1,,,28,
O=C(/C=C/c1cc2ccc(Br)cc2[nH]1)c1cccc(Br)c1O,,>64,41,
O=C(/C=C/c1cc2ccc(Br)cc2[nH]1)c1ccc(Br)cc1O,132,>64,,
Brc1ccc(-c2c[nH]c3ccc(Br)cc23)cc1,,1,,inhibition [9]: 20%
O=C(Nc1nc2cc(Br)ccc2[nH]1)c1cc(Br)ccc1O,11,4,,
O=C(Nc1nc2ccc(Br)cc2s1)c1cccc(Cl)c1O,,4,,inhibition [9]: 43%
O=C(/C=C/c1cc2ccc(Br)cc2[nH]1)c1cc(Br)ccc1O,,>64,15,
O=C(/C=C/c1c[nH]c2cc(Br)ccc12)c1c[nH]c2ccccc12,,,28,
O=C(/C=C/c1cccc(Br)c1O)c1cc2ccc(Br)cc2[nH]1,403,>64,,
COc1ccc(Br)cc1-c1cccc(-c2cc3ccccc3[nH]2)n1,,>64,6,

Compound,IC50 (Pyruvate kinase) [nM],MIC>98 (Staphylococcus aureus [2]) [µg/mL],inhibition [3] [%],other results
O=C(Nc1nc2cc(Br)ccc2s1)c1cc2ccccc2[nH]1,,>64,,
COc1ccc(Br)cc1/C=C1\CCc2c([nH]c3ccccc23)C1=O,,,22,
O=C(/C=C/c1cc2ccccc2[nH]1)c1cc2ccc(Br)cc2[nH]1,5,>64,,
O=C(/C=C/c1cc2ccccc2[nH]1)c1cc(Br)ccc1O,,,10,
O=C(/C=C/c1cc(Br)ccc1O)c1cc2ccccc2[nH]1,355,2,,
O=C(Nc1nc2ccccc2s1)c1cc(Br)ccc1O,,>64,13,
O=C(/C=C/c1c[nH]c2cc(Br)ccc12)c1cc2ccccc2[nH]1,,,45,
O=C(Nc1cccc(Br)c1O)c1cc2ccc(Br)cc2[nH]1,,>64,,
O=C(Nc1nc2ccc(Br)cc2s1)c1cccc(Br)c1O,,4,,
COc1ccc(Br)cc1C(=O)Nc1nc2ccc(Br)cc2s1,8,>64,,
O=C(/C=C/c1ccc(Br)cc1O)c1cc2ccc(Br)cc2[nH]1,14,>64,,
Oc1ccc(Br)cc1-c1nnc(-c2cc3ccccc3[nH]2)o1,,>64,8,
O=C(Nc1nc2ccc(Br)cc2s1)c1cc(Br)ccc1O,,>64,,
O=C(Nc1ccc(Br)cc1)c1cc2ccc(Br)cc2s1,,>64,,inhibition [9]: 43%
O=C(/C=C/c1cc(Br)ccc1O)c1cc2ccc(Br)cc2[nH]1,24,1,,
Oc1ccc(Br)cc1-c1ccnc(-c2cc3ccc(Br)cc3[nH]2)c1,,>64,,inhibition [9]: 41%
COc1c(Br)cccc1C(=O)Nc1nc2ccc(Br)cc2s1,,>64,22,
O=C(Nc1nc2cc(Br)ccc2s1)c1cc2cc(Br)ccc2[nH]1,8,>64,,
O=C(/C=C/c1c[nH]c2ccc(Br)cc12)c1cc2ccccc2[nH]1,1780,>64,,
O=C(Nc1ccc(Br)cc1)c1cc2ccccc2[nH]1,,>64,41,

Compound,IC50 (Pyruvate kinase) [nM],MIC>98 (Staphylococcus aureus [2]) [µg/mL],inhibition [3] [%],other results
O=C(Nc1cc(Br)ccc1O)c1cc2ccc(Br)cc2[nH]1,12,>64,,
O=C(Nc1nc2ccc(Br)cc2s1)c1cc2ccccc2[nH]1,,>64,,
O=C(Nc1ccc(Br)cc1)c1cc2ccc(Br)cc2[nH]1,10,>64,,
O=C(/C=C/c1cc2ccc(Br)cc2[nH]1)c1cc2cc(Br)ccc2[nH]1,,>64,21,
Oc1c(Br)cccc1CNc1nc2ccc(Br)cc2s1,,,17,
Cn1c(C(=O)Nc2nc3ccc(Br)cc3s2)cc2ccccc21,,>64,41,
CN(C(=O)c1cc(Br)ccc1O)c1nc2ccc(Br)cc2s1,,,5,
Oc1ccc(Br)cc1/C=N/c1nc2ccc(Br)cc2s1,,64,41,
O=C(Nc1nc2ccc(Br)cc2s1)c1cc(Br)cc(Br)c1O,4,1,,
Brc1ccc(-c2cc3cc(Br)ccc3[nH]2)cc1,,,21,
O=C(/C=C/c1c[nH]c2ccc(Br)cc12)c1c[nH]c2ccccc12,,,1,
O=C(/C=C/c1cc2ccccc2[nH]1)c1ccc(Br)cc1O,553,>64,,
O=C1c2ccc(Br)cc2C(=O)N1c1nc2ccc(Br)cc2s1,,>64,34,
O=C(c1ncc(-c2c[nH]c3cc(Br)ccc23)[nH]1)c1c[nH]c2ccccc12 [BROMODEOXYTOPSENTIN],60,,,
O=C(/C=C/c1cc2ccc(Br)cc2[nH]1)c1cc2ccccc2[nH]1,,>64,38,
O=C(Nc1nc2ccc(Br)cc2s1)c1cc2cc(Br)ccc2[nH]1,23,>64,,
O=C(Nc1nc2cc(Br)ccc2s1)c1cc(Br)ccc1O,,>64,48,
COc1ccc(Br)cc1-c1nnc(-c2cc3ccccc3[nH]2)o1,,>64,19,
